This note sets out measurements from US5521197A, “3-<1-alkylenearyl>-4-<1,2,3,6-tetrahydropyridinyl>-and 3-<1-alkylenearyl>-4-piperidinyl-1h-indoles: new 5-HT1F agonists” (Eli Lilly and Company, priority 1994, dated 1996).

Where a name gives a salt, the structure may show the parent alone.

The target of one assay is T1, 5-HT1F receptor (Homo sapiens, UniProt P30939).
T1 sequence (P30939 1-366): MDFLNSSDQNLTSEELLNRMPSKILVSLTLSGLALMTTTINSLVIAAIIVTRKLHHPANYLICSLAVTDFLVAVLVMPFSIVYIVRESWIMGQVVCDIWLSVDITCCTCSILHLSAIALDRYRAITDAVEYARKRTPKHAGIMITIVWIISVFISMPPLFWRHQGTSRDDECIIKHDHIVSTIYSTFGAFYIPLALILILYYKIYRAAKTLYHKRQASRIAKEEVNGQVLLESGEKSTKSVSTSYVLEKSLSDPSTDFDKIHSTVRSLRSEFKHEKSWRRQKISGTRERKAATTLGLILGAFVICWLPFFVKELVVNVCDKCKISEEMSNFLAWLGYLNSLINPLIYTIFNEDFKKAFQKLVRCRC
Put plainly: Radioligand ([3H]5-HT) binding to the 5-HT1F receptor subtype.
Conditions: not given
More on the design: expressed in transfected cells; host or cells: Ltk- cells (membranes). As for the experimental part:
The cells were washed twice with phosphate-buffered saline, scraped from the culture dishes into 5 mL of ice-cold phosphate-buffered saline, and centrifuged at 200×g for 5 minutes at 4° C. The pellet was resuspended in 2.5 mL of ice-cold Tris buffer (20 mM Tris HCl, pH=7.4 at 23° C., 5 mM EDTA) and homogenized with a Wheaton tissue grinder. The lysate was subsequently centrifuged at 200×g for 5 minutes at 4° C. to pellet large fragments which were discarded. The supernatant was collected and centrifuged at 40,000×g for 20 minutes at 4° C. The pellet resulting from this centrifugation was washed once in ice-cold Tris wash buffer and resuspended in a final buffer containing 50 mM Tris HCl and 0.5 mM EDTA, pH=7.4 at 23° C. Membrane preparations were kept on ice and utilized within two hours for the radioligand binding assays.
Saturation studies were conducted using [^3 H]5-HT at 12 different concentrations ranging from 0.5 nM to 100 nM. […] The binding profile of drugs in competition experiments was accomplished using 10-12 concentrations of compound. […] Nonspecific binding was defined in the presence of 10 μM 5-HT. Binding was initiated by the addition of 50 μL membrane homogenates (10-20 μg). The reaction was terminated by rapid filtration through presoaked (0.5% polyethyleneimine) filters using 48R Cell Brandel Harvester (Gaithersburg, Md.). Subsequently, filters were washed for 5 seconds with ice cold buffer (50 mM Tris HCl, pH=7.4 at 4° C.), dried and placed into vials containing 2.5 mL Readi-Safe (Beckman, Fullerton, Calif.) and radioactivity was measured using a Beckman LS 5000TA liquid scintillation counter. […] Binding data was analyzed by computer-assisted nonlinear regression analysis (Accufit and Accucomp, Lunden Software, Chagrin Falls, Ohio). […] All experiments were performed in triplicate. […]
`Clc1ccc2[nH]cc(C3=CCN(CCc4ccccc4)CC3)c2c1` [Example 20, 5-chloro-3-<1-<2-phenylethyl>-4-<1,2,3,6-tetrahydropyridinyl>>-1H-indolehydrochloride]: the affinity corresponds to a Ki of 38.8 nM.

`Cc1ccc2[nH]cc(C3=CCN(CCc4ccccc4)CC3)c2c1` [Example 23, 5-methyl-3-<1-<2-phenylethyl>-4-<1,2,3,6-tetrahydropyridinyl>>-1H-indolemaleate] had a Ki of 28.3 nM.

Compound `COc1ccc2[nH]cc(C3=CCN(CCc4ccccc4)CC3)c2c1` [Example 21, 5-methoxy-3-<1-<2-phenylethyl>-4-<1,2,3,6-tetrahydropyridinyl>>-1H-indolehydrochloride] returned a Ki of 33.9 nM.

With `C1=C(c2c[nH]c3ccccc23)CCN(CCc2ccccc2)C1` [Example 19, 3-<1-<2-phenylethyl>-4-<1,2,3,6-tetrahydropyridinyl>>-1H-indole], the affinity, expressed as Ki, was 81.1 nM.

The same assay, now with this note: Table I, [3H]5-HT displacement, transfected Ltk- cell membranes, 37° C.; read-out: 5-HT1F BINDING Ki.
Regarding `Brc1ccc(CCN2CCC(c3c[nH]c4ccccc34)CC2)cc1` [Example 7, 3-<1-<2-<4-bromophenyl>ethyl>-4-piperidinyl>-1H-indole hydrochloride], the Ki came out at 73.3 nM.

With `FC(F)(F)c1cccc(CCN2CCC(c3c[nH]c4ccccc34)CC2)c1` [Example 17, 3-<1-<2-<3-trifluoromethylphenyl>ethyl>-4-piperidinyl>-1H -indole], the Ki was determined as 16.1 nM.

In the case of `C1=C(c2c[nH]c3ccccc23)CCN(CCCCc2ccccc2)C1` [Example 43, 3-<1-<4-phenylbutyl>-4-<1,2,3,6-tetrahydropyridinyl>>-1H-indolehydrochloride], the Ki amounted to 547 nM.

In the case of `CCOc1ccc(CCN2CCC(c3c[nH]c4ccccc34)CC2)cc1` [Example 14, 3-<1-<2-<4-ethoxyphenyl>ethyl>-4-piperidinyl>-1H-indole hydrochloride], the Ki was found to be 185 nM.

Regarding `Clc1ccc(CCN2CCC(c3c[nH]c4ccccc34)CC2)cc1` [Example 32, 3-<1-<2-<4-chlorophenyl>ethyl>-4-piperidinyl>-1H-indole hydrochloride], the Ki is 52.1 nM.

With `COc1ccc2[nH]cc(C3CCN(CCc4ccc(F)cc4)CC3)c2c1` [Example 4, 5-methoxy-3-<1-<2-<4-fluorophenyl>ethyl>-4-piperidinyl>-1H-indolehydrochloride], the inhibitory constant (Ki) stood at 35.8 nM.

Turning to `COc1ccc(CCN2CCC(c3c[nH]c4ccc(OC)cc34)CC2)cc1` [Example 13, 5-methoxy-3-<1-<2-<4-methoxyphenyl>ethyl>-4-piperidinyl>-1H-indole oxalate], the Ki stood at 128 nM.

In the case of `Cc1ccc2[nH]cc(C3CCN(CCc4ccccc4)CC3)c2c1` [Example 30, 5-methyl-3-<1-<2-phenylethyl>-4-piperidinyl>-1H -indole hydrochloride], the Ki is 37.8 nM.

Consider `COc1ccc2[nH]cc(C3CCN(CCc4ccccc4)CC3)c2c1` [Example 28, 5-methoxy-3-<1-<2-phenylethyl>-4-piperidinyl>-1H-indole hydrochloride], for which the Ki amounted to 39.2 nM.

As to `Oc1ccc2[nH]cc(C3CCN(CCc4ccccc4)CC3)c2c1` [Example 36, 5-hydroxy-3-<1-<2-phenylethyl>-4-piperidinyl>-1H-indole hydrochloride], the Ki is 2.5 nM.

Take `c1ccc(COc2ccc(CCN3CCC(c4c[nH]c5ccccc45)CC3)cc2)cc1` [Example 15, 3-<1-<2-<4-benzyloxyphenyl>ethyl>-4-piperidinyl>-1H-indole]: the Ki amounted to 844 nM.

With `c1ccc(CCN2CCC(c3c[nH]c4ccccc34)CC2)cc1` [Example 26, 3-<1-<2-phenylethyl>-4-piperidinyl>-1H-indole], the Ki amounted to 52.1 nM.

`C1=C(c2c[nH]c3ccccc23)CCN(Cc2ccccc2)C1` [Example 44, 3-<1-benzyl-4-<1,2,3,6-tetrahydropyridinyl>>-1H-indole hydrochloride]: the Ki was determined as 396 nM.

In the case of `Fc1ccc(CCN2CCC(c3c[nH]c4ccccc34)CC2)cc1` [Example 3, 3-<1-<2-<4-fluorophenyl>ethyl>-4-piperidinyl>-1H-indole hydrochloride], the Ki amounted to 31 nM.

On to `Fc1cccc(CCN2CCC(c3c[nH]c4ccccc34)CC2)c1` [Example 2, 3-<1-<2-<3-fluorophenyl>ethyl>-4-piperidinyl>-1H-indole hydrochloride], for which the Ki was 55.5 nM.

As to `c1ccc(CCN2CCC(c3c[nH]c4ccc(OCc5ccccc5)cc34)CC2)cc1` [Example 29, 5-benzyloxy-3-<1-<2-phenylethyl>-4-piperidinyl>-1H-indole hydrochloride], the Ki came to 17.2 nM.

As for `c1ccc(CN2CCC(c3c[nH]c4ccccc34)CC2)cc1` [Example 45, 3-<1-benzyl-4-piperidinyl>-1H -indole], the Ki turned out to be 240 nM.

As for `Cc1ccccc1CCN1CCC(c2c[nH]c3ccccc23)CC1` [Example 8, 3-<1-<2-<2-methylphenyl>ethyl>-4-piperidinyl>-1H-indole hydrochloride], the Ki stood at 45 nM.

As to `c1ccc(OCCCN2CCC(c3c[nH]c4ccccc34)CC2)cc1` [Example 41, 3-<1-<3-phenoxypropyl>-4-piperidinyl>-1H-indole hydrochloride], the Ki was determined as 91.4 nM.

`c1ccc2c(CCN3CCC(c4c[nH]c5ccccc45)CC3)cccc2c1` [Example 35, 3-<1-<2-<1-naphthyl>ethyl>-4-piperidinyl>-1H-indole]: the Ki is 76.7 nM.

Take `Fc1ccccc1CCN1CCC(c2c[nH]c3ccccc23)CC1` [Example 1, 3-<1-<2-<2-fluorophenyl>ethyl>-4-piperidinyl>-1H-indole hydrochloride]: the Ki was 29.5 nM.

Regarding `COc1ccc(CCN2CCC(c3c[nH]c4ccccc34)CC2)cc1` [Example 33, 3-<1-<2-<4-methoxyphenyl>ethyl>-4-piperidinyl>-1H-indole hydrochloride], the Ki was found to be 127 nM.

With `FC(F)(F)c1ccccc1CCN1CCC(c2c[nH]c3ccccc23)CC1` [Example 16, 3-<1-<2-<2-trifluoromethylphenyl>ethyl>-4-piperidinyl>-1H-indolehydrochloride], the Ki was 64.3 nM.

As for `Cc1cccc(CCN2CCC(c3c[nH]c4ccccc34)CC2)c1` [Example 9, 3-<1-<2-<3-methylphenyl>ethyl>-4-piperidinyl>-1H-indole hydrochloride], the Ki was 29.7 nM.

In the case of `C1=C(c2c[nH]c3ccccc23)CCN(CCOc2ccccc2)C1` [Example 37, 3-<1-<2-phenoxyethyl>-4-<1,2,3,6-tetrahydropyridinyl>>-1H-indolehydrochloride], the Ki is 413 nM.

On to `C1=C(c2c[nH]c3ccccc23)CCN(CCCOc2ccccc2)C1` [Example 38, 3-<1-<3-phenoxypropyl>-4-<1,2,3,6-tetrahydropyridinyl>>-1H-indolehydrochloride], for which the Ki came out at 136 nM.

Staying with this assay, now noted: read-out: 5-HT1F BINDING, % displacement at 1000 nM.
`C1=C(c2c[nH]c3ccccc23)CCN(CCSc2ccccc2)C1` [Example 39, 3-<1-<2-<phenylthio>ethyl>-4-<1,2,3,6-tetrahydropyridinyl>>-1H-indole]: the inhibition at 1 µM worked out at 34%.

With `C1=C(c2c[nH]c3ccccc23)CCN(CCc2cccc3ccccc23)C1` [Example 34, 3-<1-<2-<1-naphthyl>ethyl>-4-<1,2,3,6-tetrahydropyridinyl>>-1H-indole], the inhibition at 1 µM came to 38%.
